Assay results taken from patent US8193224B2, “Medicinal composition for prevention or treatment of parasitic protozoan infection” (Fujifilm Corporation, priority 2004, dated 2012).

Key:
Type in all cases: cell-based
[1] = Growth inhibition test of rat L6 cells; conditions: L6 cells (rat skeletal myoblast), Alamar Blue (Table 2), read-out: 50% growth inhibition concentration Cytotoxicity L6
Protocol: Rat derived-L6 cells (rat skeletal myoblast cell) were used. As medium, RPMI1640 medium was supplemented so that L-glutamin (200 mM) is 1%, and fetal bovine serum 10%, and the medium was cultured under CO2 concentration 5%, at 37° C. The compounds of the present invention and the target drugs to be used in the test were dissolved in DMSO, to make a test solution of a predetermined concentration. Pre-culture was conducted and medium containing cells which have entered the logarithmic growth phase was taken to wells of a 96-well culture plate. Then, a test solution containing drug of a predetermined concentration or a drug-free DMSO was added. Test solutions were taken by duplicates. Culture plate was cultured for 72 hours in an incubator, to test the growth inhibition activity. Test was conducted as follows.
10 μl of Alamar Blue aqueous solution was added to each well, and the resultant was further cultured for 2 hours. Next, the culture plate was placed on a fluorescent micro-plate reader (Spectramax Gemeni XS; US Molecular Device), radiated at an excited wavelength of 536 nm. Fluorescent intensity was measured at 588 nm, and residual rate of L6 cells of the test solution added group, and that of the control was calculated. Based on the cell residual rate obtained in the above, growth inhibition rate to L6 cells was calculated, to obtain a 50% growth inhibition concentration (EC50). Growth inhibition rate (%)={(C−A)/(B−A)}×100 A: primary cell count B: cell count of control, 3 days after C: cell count of wells added with a sample, 3 days after […]

[2] = tested on: Leishmania donovani (MHOM/ET/67/L82 strain); experiment: Leishmania protozoa growth inhibition screening test; conditions: Leishmania donovani; MHOM/ET/67/L82 strain amastigote, pH 5.4, 72 hours, Alamar Blue; read-out: 50% growth inhibition concentration Leishmania donovani
Protocol: In the present example, Leishmania donovani (MHOM/ET/67/L82 strain) was used. Protozoa was subcultured in Syrian Golden hamster, from which an amastigote was obtained. In the experiment, SM medium supplemented with 10% heat-treated bovine fetal serum was used, which was adjusted to pH 5.4, and cultured in an atmosphere of 5% CO2 concentration, at 37° C.
The compounds of the present invention to be used in the present test and the positive target drug (miltefosine) were dissolved in DMSO to make a test solution of a predetermined concentration. After adding a medium containing a predetermined number of protozoa to wells of a 96-well culture plate and pre-treating, concentration of the amastigote was measured with CASY cell analysis system (Scharfe, Germany). Then, test solution containing a drug of a predetermined concentration or a drug-free DMSO was added. Test solutions were taken by duplicates. After culturing the culture plate for 72 hours in an incubator, growth inhibition activity was tested. Test was conducted as follows.
10 μL of Alamar Blue aqueous solution was added to each well, and the resultant was further cultured for 2 hours. Next, the culture plate was placed on a fluorescent micro-plate reader (Spectramax Gemeni XS; US Molecular Device), radiated at an excited wavelength of 536 nm. Fluorescent intensity was measured at 588 nm, and infection rate of leishmania protozoa of the test solution added-group and control was calculated, to obtain a 50% growth inhibition concentration (EC50). Growth inhibition rate (%)={1−(b−a)/(c−a)}×100 a: early infection rate b: infection rate when test solution was added c: infection rate of the control

[3] = tested on: Leishmania donovani (MHOM/ET/67/L82 strain); experiment: as above; conditions: chemotherapy index = EC50 rat L6 cells / EC50 leishmania protozoa

CCN1C(C)=CS/C1=C\C=c1/s/c(=C\c2sc3ccccc3[n+]2CC)n(CC)c1=O [A-15]
EC50 at 72 h [1]: 22 µM | EC50 [2]: 0.17 µM | Selective toxicity [3]: 130

CCN1/C(=C/C=c2\s/c(=C\c3sc4c5ccccc5ccc4[n+]3CC)n(CC)c2=O)Sc2ccc3ccccc3c21 [A-1]
EC50 at 72 h [1]: 30 µM | EC50 [2]: 0.0083 µM | Selective toxicity [3]: 3600

CCN1/C(=C/C=c2\s/c(=C\C3=[N+](CC)CCS3)n(CC)c2=O)C=Cc2ccccc21 [A-10]
EC50 at 72 h [1]: 20 µM | EC50 [2]: 0.15 µM | Selective toxicity [3]: 130
